ChEMBL document CHEMBL3596163, “Discovery of imidazo[1,5-a]pyridines and -pyrimidines as potent and selective RORc inverse agonists” (Bioorg Med Chem Lett, 2015)
pEC50: −log10 of the molar value. The source made the active and inactive calls. No cut-off for these calls is given here.

Legend:
[1] = molecular target: T1, Oxysterols receptor LXR-alpha (Homo sapiens) (UniProt Q13133); test: Antagonist activity at GAL4-fused human LXRalpha expressed in HEK293T cells assessed as inhibition of T0901317-induced basal transcriptional activity up to 10 uM after 20 hrs by dual-glo luciferase reporter gene assay; format: cell-based; conditions: HEK-293T
T1 sequence (whole entry): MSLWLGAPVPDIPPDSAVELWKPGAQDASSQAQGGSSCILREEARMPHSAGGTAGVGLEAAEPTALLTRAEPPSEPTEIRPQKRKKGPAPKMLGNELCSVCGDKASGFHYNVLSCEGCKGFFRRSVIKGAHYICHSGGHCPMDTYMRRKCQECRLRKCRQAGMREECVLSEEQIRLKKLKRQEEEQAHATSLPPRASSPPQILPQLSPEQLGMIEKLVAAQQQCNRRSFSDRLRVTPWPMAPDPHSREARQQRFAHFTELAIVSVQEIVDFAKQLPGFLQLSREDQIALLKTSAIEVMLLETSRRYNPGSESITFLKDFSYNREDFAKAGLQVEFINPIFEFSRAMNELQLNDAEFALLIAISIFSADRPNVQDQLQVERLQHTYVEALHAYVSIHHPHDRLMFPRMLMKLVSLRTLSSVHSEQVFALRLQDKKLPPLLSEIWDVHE

PBMC [2] = test: Cytotoxicity against human PBMC assessed as effect on cell physiology after 48 hrs by CellTiter-Glo assay; format: cell-based
[3] = molecular target: T2, Nuclear receptor ROR-alpha (Homo sapiens, UniProt P35398); test: Inverse agonist activity at GAL4-fused human RORa expressed in HEK293T cells assessed as suppression of basal transcriptional activity after 20 hrs by dual-glo luciferase reporter gene assay; format: cell-based, HEK-293T
T2 sequence (P35398 whole entry): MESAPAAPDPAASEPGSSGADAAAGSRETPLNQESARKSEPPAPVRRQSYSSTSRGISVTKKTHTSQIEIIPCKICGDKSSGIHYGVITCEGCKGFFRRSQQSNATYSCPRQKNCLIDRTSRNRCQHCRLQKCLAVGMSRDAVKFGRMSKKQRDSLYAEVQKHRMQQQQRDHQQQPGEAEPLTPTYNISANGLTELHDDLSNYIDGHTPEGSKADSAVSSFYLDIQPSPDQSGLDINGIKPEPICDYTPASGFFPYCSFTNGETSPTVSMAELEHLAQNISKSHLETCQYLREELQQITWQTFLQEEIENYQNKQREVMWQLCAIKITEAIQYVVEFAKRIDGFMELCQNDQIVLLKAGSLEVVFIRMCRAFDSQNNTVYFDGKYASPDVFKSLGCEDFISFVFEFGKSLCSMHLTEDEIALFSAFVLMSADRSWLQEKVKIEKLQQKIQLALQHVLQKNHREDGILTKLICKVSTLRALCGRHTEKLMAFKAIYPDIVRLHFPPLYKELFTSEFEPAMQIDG

[4] = molecular target: T3, Nuclear receptor subfamily 1 group I member 2 (Homo sapiens, UniProt O75469); test: Agonist activity at GAL4-fused human PXR expressed in HEK293T cells assessed as activation of basal transcriptional activity after 20 hrs by dual-glo luciferase reporter gene assay; format: cell-based, HEK-293T
T3 sequence (O75469 whole entry): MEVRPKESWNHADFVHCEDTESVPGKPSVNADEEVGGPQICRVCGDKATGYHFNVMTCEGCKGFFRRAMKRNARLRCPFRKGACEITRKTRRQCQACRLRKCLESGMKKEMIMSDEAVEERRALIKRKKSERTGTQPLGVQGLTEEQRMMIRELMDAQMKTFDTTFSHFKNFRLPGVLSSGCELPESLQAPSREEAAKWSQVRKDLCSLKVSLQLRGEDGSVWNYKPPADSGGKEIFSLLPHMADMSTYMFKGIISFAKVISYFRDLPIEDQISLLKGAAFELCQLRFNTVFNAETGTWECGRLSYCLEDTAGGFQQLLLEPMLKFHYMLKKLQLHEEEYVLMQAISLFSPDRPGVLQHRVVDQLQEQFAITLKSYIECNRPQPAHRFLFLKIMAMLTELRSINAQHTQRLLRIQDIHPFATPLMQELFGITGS

Bile acid receptor = molecular target: T4, Bile acid receptor (Homo sapiens, UniProt Q96RI1); test: Agonist activity at GAL4-fused human FXR expressed in HEK293T cells assessed as activation of basal transcriptional activity after 20 hrs by dual-glo luciferase reporter gene assay; format: cell-based, HEK-293T
T4 sequence (Q96RI1 whole entry): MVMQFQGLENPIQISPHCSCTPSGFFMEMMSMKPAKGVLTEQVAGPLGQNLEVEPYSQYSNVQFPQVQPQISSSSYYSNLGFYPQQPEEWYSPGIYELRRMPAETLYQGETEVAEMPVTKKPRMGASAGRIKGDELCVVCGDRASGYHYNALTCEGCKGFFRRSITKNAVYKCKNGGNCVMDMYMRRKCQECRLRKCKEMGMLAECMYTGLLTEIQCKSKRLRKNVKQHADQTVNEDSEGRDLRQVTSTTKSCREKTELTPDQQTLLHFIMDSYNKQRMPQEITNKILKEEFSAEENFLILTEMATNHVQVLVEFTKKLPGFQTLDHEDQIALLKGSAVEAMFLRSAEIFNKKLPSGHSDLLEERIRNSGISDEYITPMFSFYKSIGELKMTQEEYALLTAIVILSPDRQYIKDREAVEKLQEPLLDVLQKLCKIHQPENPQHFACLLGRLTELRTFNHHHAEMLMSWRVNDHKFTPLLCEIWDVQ

PBMC [5] = test: Antiinflammatory activity in human PBMC assessed as inhibition of IL-17 production after 48 hrs by Sandwich ELISA relative to control; format: functional
[6] = molecular target: T5, Oxysterols receptor LXR-beta (Homo sapiens, UniProt P55055); test: Agonist activity at GAL4-fused human LXRbeta expressed in HEK293T cells assessed as activation of basal transcriptional activity after 20 hrs by dual-glo luciferase reporter gene assay; format: cell-based, HEK-293T
T5 sequence (P55055 whole entry): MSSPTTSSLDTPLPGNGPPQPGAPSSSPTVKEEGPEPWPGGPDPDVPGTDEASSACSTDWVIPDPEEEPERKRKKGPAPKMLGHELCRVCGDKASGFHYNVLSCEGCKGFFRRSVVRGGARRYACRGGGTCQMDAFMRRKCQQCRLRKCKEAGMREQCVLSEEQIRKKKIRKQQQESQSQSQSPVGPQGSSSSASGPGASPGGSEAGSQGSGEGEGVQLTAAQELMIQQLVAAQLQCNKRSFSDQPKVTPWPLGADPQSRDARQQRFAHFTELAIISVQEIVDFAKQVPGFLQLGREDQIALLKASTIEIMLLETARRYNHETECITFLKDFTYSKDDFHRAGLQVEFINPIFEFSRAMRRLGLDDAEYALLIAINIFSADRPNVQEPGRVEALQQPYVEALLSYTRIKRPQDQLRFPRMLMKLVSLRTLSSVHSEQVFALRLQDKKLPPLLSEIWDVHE

[7] = molecular target: T6, Bile acid receptor (Homo sapiens) (UniProt Q96RI1); test: Antagonist activity at GAL4-fused human FXR expressed in HEK293T cells assessed as inhibition of T0901317-induced basal transcriptional activity up to 10 uM after 20 hrs by dual-glo luciferase reporter gene assay; format: cell-based; conditions: HEK-293T
T6 sequence (whole entry): T4 sequence (Q96RI1 whole entry)

PBMC [8] = test: Inhibition of IFNgamma production in human PBMC after 48 hrs by Sandwich ELISA; format: functional, cell-based
[9] = Lipophilicity, log D of the compound at pH 7.4; format: physicochemical; conditions: buffer

| SMILES | inhibition [1] | pEC50 (PBMC [2]) | pEC50 [3] | pEC50 [4] | pEC50 (Bile acid receptor) | %max (PBMC [5]) [%] | pEC50 [6] | inhibition [7] | pEC50 (PBMC [8]) | logD [9] |
| --- | --- | --- | --- | --- | --- | --- | --- | --- | --- | --- |
| O=C(O)c1ccc(-c2nc(C(=O)c3c(Cl)cccc3C(F)(F)F)n3ccccc23)c(F)c1 | inactive | < 5.00 | < 5.00 | < 5.00 | < 5.00 | 63 | < 5.00 | inactive | < 5.00 | 1.8 |
| O=C(O)c1ccc(-c2nc(C(=O)c3c(Cl)cccc3C3CC3)n3cccnc23)cc1O | inactive | < 5.00 | < 5.00 | < 5.00 | < 5.00 | 73 | < 5.00 | inactive | < 5.00 | 1.5 |
| O=C(O)c1ccc(-c2nc(C(=O)c3c(Cl)cccc3C(F)(F)F)n3ccccc23)cc1O | inactive | < 5.00 | < 5.00 | < 5.00 | < 5.00 | 70 | < 5.00 | inactive | < 5.00 | 2.5 |
| O=C(O)c1ccc(-c2nc(C(=O)c3c(Cl)cccc3C(F)(F)F)n3c2CCCC3)c(F)c1 | inactive | < 5.00 | < 5.00 | < 5.00 | < 5.00 | 64 | < 5.00 | inactive | < 5.00 | 1.3 |
| O=C(O)c1ccc(-c2nc(C(=O)c3c(Cl)cccc3C(F)(F)F)n3ccccc23)cc1 | inactive | < 5.00 | < 5.00 | < 5.00 | < 5.00 | 69 | < 5.00 | inactive | < 5.00 | 1.5 |
| O=C(O)c1ccc(-c2nc(C(=O)c3c(Cl)cccc3C3CC3)n3c2CCCC3)c(F)c1 | inactive | < 5.00 | < 5.00 | < 5.00 | < 5.00 | 72 | < 5.00 | inactive | < 5.00 | 1.6 |
